In the supplement of paper PMC10307832:

Experiments:
Assay in all cases: relative viability (nuclei count vs DMSO), 5 days (fraction); higher = more cells survive
[1] = compound: COc1cc2nc(N3CCCN(C)CC3)nc(NC3CCN(Cc4ccccc4)CC3)c2cc1OC + CS(=O)(=O)CCNCc1ccc(-c2ccc3ncnc(Nc4ccc(OCc5cccc(F)c5)c(Cl)c4)c3c2)o1 [Lapatinib] (partner 2 µM)
How it was run: (§1)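 Values are medians from duplicate plates. Each reflects relative viability, defined as the nuclei count of treated wells over that of vehicle wells. Lung cancer cell lines in 1536-well plates were pin-tool dosed one day after seeding with one drug alone or with a fixed anchor-drug dose plus five library-drug doses (not always all listed) in √10 steps, then fixed, stained and imaged at 4× after 5 days.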

[2] = compound: Cc1cc([C@@H](C)Nc2ccccc2C(=O)O)c2nc(N3CCOCC3)cc(=O)n2c1 [AZD6482] + Cc1cc(Nc2cc(N3CCN(C)CC3)nc(Sc3ccc(NC(=O)C4CC4)cc3)n2)n[nH]1 [Tozasertib] (partner 0.1 µM)
How it was run: as §1

[3] = compound: Cc1cc([C@@H](C)Nc2ccccc2C(=O)O)c2nc(N3CCOCC3)cc(=O)n2c1 [AZD6482] + Cc1nc(NC(=O)N2CCC[C@H]2C(N)=O)sc1-c1ccnc(C(C)(C)C(F)(F)F)c1 [Alpelisib] (partner 2 µM)
How it was run: as §1

[4] = compound: Cc1cc([C@@H](C)Nc2ccccc2C(=O)O)c2nc(N3CCOCC3)cc(=O)n2c1 [AZD6482] + O=C(c1cc(Cc2n[nH]c(=O)c3ccccc23)ccc1F)N1CCN(C(=O)C2CC2)CC1 [Olaparib] (partner 8 µM)
How it was run: as §1

Cell Line	relative viability ([1]; first compound 0.2 µM)	relative viability ([1]; first compound 0.6325 µM)	relative viability ([1]; first compound 2 µM)	relative viability ([1]; first compound 6.325 µM)	relative viability ([2]; first compound 0.08 µM)	relative viability ([2]; first compound 0.253 µM)	relative viability ([2]; first compound 0.8 µM)	relative viability ([2]; first compound 2.53 µM)	relative viability ([2]; first compound 8 µM)	relative viability ([3]; first compound 0.08 µM)	relative viability ([3]; first compound 0.253 µM)	relative viability ([3]; first compound 0.8 µM)	relative viability ([3]; first compound 2.53 µM)	relative viability ([3]; first compound 8 µM)	relative viability ([4]; first compound 0.08 µM)	relative viability ([4]; first compound 0.253 µM)	relative viability ([4]; first compound 0.8 µM)	relative viability ([4]; first compound 2.53 µM)	relative viability ([4]; first compound 8 µM)
NCI-H1734	1.11	0.977	1.06	0.76	0.287	0.263	0.269	0.217	0.24	0.416	0.444	0.431	0.338	0.521	0.509	0.538	0.531	0.365	0.509
NCI-H1755	1.03	1.02	1.06	0.927	0.608	0.537	0.688	0.478	0.519	0.695	0.719	0.547	0.336	0.435	0.839	0.755	0.769	0.583	0.601
NCI-H1793	0.75	0.742	0.855	0.664	0.256	0.189	0.219	0.226	0.15	0.537	0.519	0.48		0.406	0.559	0.413	0.502	0.306	0.406
NCI-H1915	1.01	0.875	1.02	0.956	0.453	0.346	0.417	0.426	0.371	1.04	1.02	1.1	0.958	1.05	0.266	0.268	0.276	0.236	0.258
NCI-H1944	0.778	0.961		0.762	0.238	0.242	0.217	0.206	0.189	0.6	0.518	0.6	0.421	0.51	0.399	0.443	0.428	0.337	0.388
NCI-H1975	0.93	0.968	1.01	0.881	0.624	0.717	0.701	0.629	0.463	0.475	0.439	0.521	0.373	0.362	0.661	0.832	0.964	0.648	0.624
NCI-H1993	0.684	0.907	0.834	0.751	0.446	0.609	0.55	0.527	0.562	0.701	0.653			0.767	0.881	0.997	0.95	0.563	0.665
NCI-H2009	0.871	0.888	1.08	0.901	0.677	0.733	0.637	0.503	0.521	0.936	1.15	1.04	0.484	0.985	0.597	0.683	0.703	0.452	0.619
NCI-H2023	0.87	0.836	0.961	0.115	0.367	0.336	0.286	0.289	0.279	0.389	0.427	0.449	0.267	0.32	0.496	0.457	0.43	0.353	0.379
NCI-H2085	0.698	0.772	0.798	0.605	0.656	0.539	0.407	0.393	0.351	0.426	0.409	0.351	0.34	0.409	0.632	0.358	0.45	0.36	0.303
NCI-H2087	1.18	0.744	1.08	0.964	0.282	0.268	0.221		0.205	0.953	1.06	1.17	0.819	0.972	0.578	0.587	0.523	0.345	0.519
NCI-H2126	0.74	0.742	0.796	0.732	0.786	0.804	0.669	0.423	0.561	0.608	0.569	0.606	0.476	0.559	0.877	0.904	0.867	0.615	0.57
NCI-H2170	0.253	0.28	0.254	0.272	0.678	0.681	0.615	0.643	0.47	0.662	0.666	0.713	0.56	0.681	0.536	0.608	0.511	0.542	0.489
NCI-H2228	0.959	1.34	1.23	0.757		0.257	0.235	0.287	0.155	0.477	0.589	0.578	0.397	0.539	0.494	0.546	0.569	0.466	0.569
NCI-H2347	0.901	1.01	0.954	0.911	0.321	0.388	0.364	0.357	0.371		0.743	0.891	0.514	0.719	0.449	0.536	0.496	0.432	0.432
NCI-H2405	1.08	1.08	1.2	0.885	0.465		0.668	0.53	0.403	0.354		0.603	0.384	0.556	0.599	0.861	0.929	0.541	0.677
NCI-H3122	1.07	1.01	1.01	1.01	0.355	0.348	0.344		0.351	0.696	0.717	0.754	0.394	0.677	0.608	0.729	0.657	0.585	0.616
